Data reported in article PMC7251641 (Cell, 2010).

Target: INO80 (Saccharomyces cerevisiae, UniProt P53115)
Test: real-time fluorescent phosphate-release ATPase assay
Type: biochemical
Details: 0.1 nM INO80; with or without 15 nM nucleosomes or DNA; 23 °C

## Nc1ncnc2c1ncn2[C@@H]1O[C@H](COP(=O)(O)OP(=O)(O)OP(=O)(O)O)[C@@H](O)[C@H]1O [ATP]
  KM: KM for the ATPase of SWR1, INO80, and SWI/SNF in the presence or absence
